system: P. falciparum 3D7 growth, pLDH absorbance; test: P. falciparum 3D7 growth inhibition, dose response, strain 3D7 (AID 2305)

**Q.** For `NC(=O)C1CCN(Cc2ccc(-c3cccc(-c4nc5ccc(F)cc5[nH]4)c3)cc2)CC1`, which IC50 is on record?
**A.** The IC50 was 880 nM.

**Q.** `CC1(C)[C@H]2CC[C@@H](CNc3nc(NCC(=O)Nc4ccc5ccccc5c4)nc(N4CCC(N5CCCC5)CC4)n3)[C@@H]1C2` was tested. Which IC50 did it give?
**A.** The IC50 was 1190 nM.

**Q.** Which IC50 does the source give for `Cc1cccc2[nH]c(-c3cccc(-c4cccc(C(=O)NCCc5cn(C)cn5)c4)c3)nc12` here?
**A.** The IC50 was 590 nM.

**Q.** `Cc1cc2ccccc2c(CON2C(N)=NC(N)=NC2(C)C)c1C` was tested. Which IC50 did it give?
**A.** The IC50 was 10 nM.

**Q.** How did the IC50 turn out when `COC(=O)c1cccc(CNCc2ccc(-c3cccc(-c4nc5ccccc5[nH]4)c3)cc2)c1` was run?
**A.** Its IC50 is 260 nM.

**Q.** For `O=C(NCCc1ccccc1F)c1cc(Br)cc(N2CCN(c3ccncc3)CC2)c1`, which IC50 is on record?
**A.** Its IC50 is 760 nM.

**Q.** How did the IC50 turn out when `CS(=O)(=O)c1ccc2c(c1)CCN(CCC1CCC(NC(=O)c3cc4cccc(Br)c4[nH]3)CC1)CC2` (stereo not drawn) was run?
**A.** The IC50 was 1040 nM.

**Q.** With `COc1ccc(Nc2nc(NC3CCN(C)CC3)cc(-c3ccc(OC)cc3)n2)cc1` as the molecule, how does the IC50 read?
**A.** Its IC50 is 540 nM.

**Q.** With `CN(CCc1ccccn1)c1cccc2c1nc(-c1cccnc1)n2CCNCc1ccccc1` as the molecule, how does the IC50 read?
**A.** Its IC50 is 1060 nM.

**Q.** With `N#Cc1ccc(N2CCN(Cc3ccc(-c4cccc(-c5nc6ccccc6[nH]5)c4)cc3)CC2)nc1` as the molecule, how does the IC50 read?
**A.** The IC50 was 910 nM.

**Q.** How did the IC50 turn out when `O=C1[C@H]2C(c3ccc(Cl)c(Cl)c3)N3CC(OCc4ccccc4)CC3(C(=O)O)[C@H]2C(=O)N1c1ccc(Br)cc1` (stereo partly drawn) was run?
**A.** Its IC50 is 340 nM.

**Q.** How did the IC50 turn out when `CCC(=O)Nc1ccc(Nc2nc(C)cc(N3CCCC3)n2)cc1` was run?
**A.** The IC50 was 1320 nM.

**Q.** For `Cc1cccc2[nH]c(-c3cccc(-c4ccc(NC(=O)Nc5cccc(C#N)c5)cc4)c3)nc12`, which IC50 is on record?
**A.** Its IC50 is 190 nM.

**Q.** `C[C@]12CC3CC(Nc4nc(N5CCOCC5)nc5ccccc45)(C1)C[C@@](C)(C3)C2` was tested. Which IC50 did it give?
**A.** Its IC50 is 940 nM.

**Q.** For `COc1ccc(O)c(C(=O)NCCc2ccc(OC)c(-c3ccc(C(C)(C)C)cc3)c2)c1`, which IC50 is on record?
**A.** Its IC50 is 1030 nM.

**Q.** For `CC(C)(C)c1ccc(/C=C/C(=O)NCCCCCN2CCC(c3c[nH]c4ccccc34)CC2)cc1`, which IC50 is on record?
**A.** Its IC50 is 1090 nM.

**Q.** With `COc1ccc(-c2ccc(NC(=O)c3ccc(Cl)cc3)cc2)cc1CN(C)CCO` as the molecule, how does the IC50 read?
**A.** The IC50 was 810 nM.

**Q.** For `Cc1[nH]c(C)c(-c2ccc(-c3ccc(C#N)cc3)nc2)c(=O)c1Br`, which IC50 is on record?
**A.** The IC50 was 980 nM.

**Q.** `Cc1noc(C)c1-c1ccc2c(Nc3ccccc3C(C)(C)C)c(C(=O)NCc3ccccc3)cnc2c1` was tested. Which IC50 did it give?
**A.** The IC50 was 760 nM.

**Q.** For `CCc1ccc(N2C(=O)C3C(Cc4ccc(OC(C)(C)C)cc4)NC4(C(=O)N(Cc5ccccc5)c5ccc(F)cc54)C3C2=O)cc1` (stereo not drawn), which IC50 is on record?
**A.** Its IC50 is 800 nM.

**Q.** For `CC(C)c1ccc(Cn2cc(-c3ccncc3)c3cc(OCc4ccccc4)ccc32)cc1`, which IC50 is on record?
**A.** The IC50 was 710 nM.

**Q.** How did the IC50 turn out when `Cc1cccc(CNc2nc(C)cc(N[C@@H](Cc3ccccc3)C(=O)NCCc3ccccc3)n2)c1` was run?
**A.** The IC50 was 670 nM.

**Q.** Which IC50 does the source give for `COc1ccc(NC(=O)CCNc2cc(C)nc(Nc3ccccc3)n2)cc1` here?
**A.** The IC50 was 1100 nM.

**Q.** With `O=C(NCc1ccccc1)C1Cc2c([nH]c3ccc(Br)cc23)C2(CCN(Cc3ccccc3)CC2)N1` (stereo not drawn) as the molecule, how does the IC50 read?
**A.** The IC50 was 870 nM.

**Q.** How did the IC50 turn out when `CC1(C)N=C(N)N=C(N)N1CCc1ccccc1` was run?
**A.** Its IC50 is 50 nM.

**Q.** For `CCCC(=O)c1cnc2c(OCCCc3cnc[nH]3)cccc2c1Nc1c(C)cccc1C`, which IC50 is on record?
**A.** The IC50 was 340 nM.

**Q.** With `COc1c(C2CCN(CCCCNC(=O)c3ccc(C)c(-c4ccc(C(F)(F)F)cc4)c3)CC2)ccc2c1CCCC2` as the molecule, how does the IC50 read?
**A.** Its IC50 is 880 nM.

**Q.** For `O=C(CCCc1ccccc1)Nc1cccc(N2CCC(N3CCN(c4ccccc4O)CC3)CC2)c1`, which IC50 is on record?
**A.** The IC50 was 790 nM.

**Q.** With `Cc1ccc(NS(=O)(=O)c2ccc(C(C)N3CCC(N4CCCCC4)CC3)cc2)cc1C` (stereo not drawn) as the molecule, how does the IC50 read?
**A.** Its IC50 is 760 nM.

**Q.** `CC(C)(C)c1ccc(CNCCOc2ccc(Nc3nnc(-c4ccc(-c5ncc[nH]5)cc4)o3)c3ccccc23)cc1` was tested. Which IC50 did it give?
**A.** Its IC50 is 140 nM.

**Q.** For `Cc1ccc(C2(O)C[C@H]3CC[C@@H](C2)N3C)cc1` (stereo partly drawn), which IC50 is on record?
**A.** Its IC50 is 610 nM.

**Q.** With `CCOc1ccc(C(C)NC(=O)Cc2ccccc2F)cc1OCC` (stereo not drawn) as the molecule, how does the IC50 read?
**A.** The IC50 was 840 nM.

**Q.** Which IC50 does the source give for `O=C(c1cc2cccc([N+](=O)[O-])c2[nH]1)N1CCC(CCN2CCC(c3c[nH]c4ccccc34)CC2)CC1` here?
**A.** Its IC50 is 940 nM.

**Q.** With `CN(Cc1cnc2nc(N)nc(N)c2n1)c1ccc(C(=O)NC(CCC(=O)O)C(=O)O)cc1` (stereo not drawn) as the molecule, how does the IC50 read?
**A.** Its IC50 is 180 nM.

**Q.** With `FC(F)(F)c1ccc2nc(-c3ccc(-c4ccc(CNCCc5ccncc5)cc4)cc3)[nH]c2c1` as the molecule, how does the IC50 read?
**A.** The IC50 was 130 nM.

**Q.** For `c1ccc(C2=NN=C(c3ccccn3)[C@H]3[C@H]4C[C@@H]([C@@H]23)[C@@H]2[C@H]4[C@H]3C[C@@H]2c2ccccc23)nc1`, which IC50 is on record?
**A.** Its IC50 is 850 nM.

**Q.** With `CCc1nonc1NC(=O)c1oc2c(C)c(C)ccc2c1C` as the molecule, how does the IC50 read?
**A.** The IC50 was 880 nM.

**Q.** How did the IC50 turn out when `COc1ccc2c(NN=Cc3cccc(F)c3)cc(C)nc2c1` was run?
**A.** Its IC50 is 780 nM.

**Q.** Which IC50 does the source give for `O=C(Nc1ccc([N+](=O)[O-])cc1Cl)c1cc2ccccc2cc1O` here?
**A.** The IC50 was 1010 nM.

**Q.** `NC(N)=NC(=O)Nc1cc(Br)c(Br)c(Br)c1` was tested. Which IC50 did it give?
**A.** Its IC50 is 810 nM.

**Q.** `Cc1cc(Nc2cccc(C#N)c2)nc(Nc2ccccc2C)n1` was tested. Which IC50 did it give?
**A.** Its IC50 is 860 nM.

**Q.** Which IC50 does the source give for `COc1cccc(C=NNc2cc(C)nc3ccccc23)c1` here?
**A.** Its IC50 is 940 nM.

**Q.** Which IC50 does the source give for `CCN(CC)CCN(Cc1ccc(-c2ccc(C(F)(F)F)cc2)cc1)C(=O)Cn1c(CCc2cccc(F)c2F)nc(=O)c2cc(F)ccc21` here?
**A.** Its IC50 is 830 nM.

**Q.** `C=CCC(C(=O)Nc1ccnc2ccc(OC)cc12)C1CCN(CCCCCCC)CC1` (stereo not drawn) was tested. Which IC50 did it give?
**A.** The IC50 was 240 nM.

**Q.** For `CNC(=O)c1cnc(Nc2ccc(N3CCN(C)CC3)cc2)nc1Nc1ccccc1OC`, which IC50 is on record?
**A.** Its IC50 is 930 nM.

**Q.** With `Cc1cc(C)cc(OCC(O)CN(CCN2CCOCC2)C(=O)Nc2ccc(Br)cc2)c1` (stereo not drawn) as the molecule, how does the IC50 read?
**A.** Its IC50 is 1030 nM.

**Q.** With `COc1cc(C(=O)N2CCOC(CCN3CCC[C@H]3C(=O)Nc3ccccc3)(c3ccc(Cl)c(Cl)c3)C2)cc(OC)c1OC` (stereo partly drawn) as the molecule, how does the IC50 read?
**A.** The IC50 was 730 nM.

**Q.** Which IC50 does the source give for `CN1CCCc2ccc(NC(=O)c3ccc(-c4cc(C(F)(F)F)nn4C)s3)cc2C1` here?
**A.** Its IC50 is 880 nM.

— PubChem BioAssay AID2305 (GlaxoSmithKline (GSK), 2010)
